# Results: patent US20240058371A1, “MOLECULE FOR INDUCING SPONTANEOUS CALCIFICATION OF TUMOR CELLS AND USE THEREOF” (ZHEJIANG UNIVERSITY, priority 2020, published 2024)
# “Also recorded” adds a separate entry of the source.
# Experiments:
# [1] = systemic FA administration; cited from earlier work
# A549-Luci cells [2] = assay: Mouse model of metastatic lung tumors, small animal in vivo imaging; design: species or system nude mice; conditions: 200 mg/kg tail vein, compared with the control group
# Procedure: To construct a mouse model of metastatic lung tumors, 3×10^6 A549-Luci cells
# were injected into the tail vein of nude mice, followed by injection of targeting peptide (CiP; 200 mg/kg) through the tail vein. Control mice were injected with PBS, 4 mg/kg adriamycin (Dox), and a control peptide ([…], targeting peptide, TP) at the same concentration as the CiP peptide; this experiment investigated whether CiP targeting peptide-induced calcification of A549 cells could inhibit lung cancer growth and metastasis. Tumorigenesis was monitored using a small animal in vivo imaging system.
# The above experiments were repeated using the E6[…], E10[…], E16[…], and E30[…] peptides.
# [3] = system: human non-small cell lung cancer cells (lines A549, H460, and H1299); assay: Flow cytometry of cell surface-bound FITC-modified targeting peptide, lung cancer cells; format: binding; conditions: 100 μg/mL FITC-modified peptide, 30 min, Ca2+ up to 2.75 mM, phosphate up to 1.61 mM
# Procedure: (§1) The free amino groups of aspartic acid residues in the targeting peptide were reacted with fluorescein isothiocyanate (FITC) in phosphate-buffered saline (PBS) solution for 12 hours, then dialyzed in dialysis bags for 5 days and lyophilized to obtain FITC-modified targeting peptide molecules.
# [4] = system: Beas-2b human lung epithelial cells, and human umbilical vein endothelial cells (HUVECs); assay: Flow cytometry of cell surface-bound FITC-modified targeting peptide, normal cells; format: binding; conditions: 100 μg/mL FITC-modified peptide, 30 min
# Procedure: as §1
# [5] = system: A549 human non-small cell lung cancer cells; assay: Electron microscopy / EDX elemental scan of cell surface calcification, lung cancer cells; format: cell-based; conditions: 1 mg/mL, 48 hours, Ca2+ up to 2.75 mM, phosphate up to 1.61 mM
# Text: (§2) Subsequently, they were subjected to electron microscopy to detect calcification on the cell surface.
# lung epithelial cells = assay: Electron microscopy / EDX elemental scan of cell surface calcification, lung epithelial cells; format: cell-based, human
# Text: as §2
# [6] = system: human non-small cell lung cancer cells (lines A549, H460, and H1299); assay: CCK8 assay, lung cancer cells; format: cell-based; design: dose or concentration left out as unconfirmed; conditions: 48 hours
# Procedure: CCK8 assays were performed to determine the killing effect of targeting peptide-induced calcification of lung cancer cells.
# [7] = system: Beas-2b human lung epithelial cells; assay: CCK8 assay, normal lung epithelial cells; format: cell-based; design: dose or concentration left out as unconfirmed; conditions: 48 hours
# A549-Luci cells [8] = assay: Ultrasound and CT imaging of calcified lung cancer, mouse model of pulmonary metastatic tumors; format: in vivo, nude mice; conditions: 200 mg/kg intravenous, 4 weeks after model establishment
# Procedure: (§3) Fifty micrograms of SodA peptide ([…]) and 0.25 mL of incomplete Freund's adjuvant were mixed and subcutaneously injected into the backs of C57 mice. Two weeks later, 50 μg of SodA peptide and 6000 agarose 4B beads dissolved in 0.2 mL PBS were covalently coupled and injected into the tail vein of the same C57 mice to construct a mouse model of pulmonary nodules. Additionally, 3×10^6 A549-Luci cells were injected into the tail vein of nude mice to construct a mouse model of pulmonary metastatic tumors. Some mice underwent intravenous injection of the targeting peptide (200 mg/kg) to induce calcification; simultaneous ultrasound and CT scans of normal lung cancer, calcified lung cancer, and pulmonary nodules were performed at 4 weeks after model establishment.
# pulmonary nodules = assay: Ultrasound and CT imaging, mouse model of pulmonary nodules; format: in vivo, C57 mice; conditions: 200 mg/kg intravenous, 4 weeks after model establishment
# Procedure: as §3
compound,measurement,setting,value
"Nc1nc2ncc(CNc3ccc(C(=O)N[C@@H](CCC(=O)O)C(=O)O)cc3)nc2c(=O)[nH]1 [FA, folic acid]",body weight,[1],dramatically reduces body weight
same,survival time,[1],severely decreases survival time
same,tumor growth,[1],promotes tumor growth
E30TDSILRSYDWTY,growth (and metastasis) of A549 lung cancer cells in vivo,A549-Luci cells [2],significantly inhibited the growth of A549 cells
E10TDSILRSYDWTY,growth (and metastasis) of A549 lung cancer cells in vivo,A549-Luci cells [2],significantly inhibited the growth of A549 cells
E16TDSILRSYDWTY,growth (and metastasis) of A549 lung cancer cells in vivo,A549-Luci cells [2],significantly inhibited the growth of A549 cells
E24 TDSILRSYDWTY [targeting peptide],binding of targeting peptide to cell surface,[3],selectively bound to the surface of lung cancer cells
same,binding of targeting peptide to cell surface,[4],did not bind to normal epithelial cells; also recorded: weakly bound to normal cells
same,calcification on the cell surface (EDX calcium and phosphorus peaks),[5],significantly increased calcification peaks
same,calcification on the cell surface (EDX calcium and phosphorus peaks),[5]; listed as CiP,significantly increased
same,calcification on the cell surface (EDX calcium and phosphorus),lung epithelial cells,without significantly affecting normal lung epithelial cells; also recorded: less deposition of calcium and phosphorus elements
same,proliferative activity / killing effect,[6],selectively inhibited the proliferative activities of various lung cancer cells
same,toxic effects on normal lung epithelial cells,[7],without significant toxic effects on normal lung epithelial cells
same,identification of calcified lung cancer on ultrasound,A549-Luci cells [8],evident as high-density calcified foci on ultrasound; also recorded: could be clearly identified on ultrasound
same,visualisation of calcified lung cancer on CT,A549-Luci cells [8],revealed a clear boundary on CT; also recorded: could be visualized on CT
same,identification of pulmonary nodules by imaging,pulmonary nodules,could not be clearly identified by imaging
same,growth (and metastasis) of A549 lung cancer cells in vivo,A549-Luci cells [2],effectively inhibited the growth and metastasis of lung cancer
same,growth (and metastasis) of A549 lung cancer cells in vivo,A549-Luci cells [2]; listed as CiP targeting peptide,significantly inhibited the growth of A549 cells
E6TDSILRSYDWTY,growth (and metastasis) of A549 lung cancer cells in vivo,A549-Luci cells [2],significantly inhibited the growth of A549 cells
